Changes are numbered by the printed parent chain. Marks after values point to notes of the source that are not given here.
Assays:
[1] = biological target: T1, E240V mutant human TP receptor (Homo sapiens, UniProt P21731, E240V); experiment: [3H]SQ29,548 radioligand binding (mixed-type), E240V mutant; conditions: HEK293 cells, value ±%CV
T1 construct: expressed in transfected cells; host or cells: HEK293
T1 sequence (P21731 1-343 E240V): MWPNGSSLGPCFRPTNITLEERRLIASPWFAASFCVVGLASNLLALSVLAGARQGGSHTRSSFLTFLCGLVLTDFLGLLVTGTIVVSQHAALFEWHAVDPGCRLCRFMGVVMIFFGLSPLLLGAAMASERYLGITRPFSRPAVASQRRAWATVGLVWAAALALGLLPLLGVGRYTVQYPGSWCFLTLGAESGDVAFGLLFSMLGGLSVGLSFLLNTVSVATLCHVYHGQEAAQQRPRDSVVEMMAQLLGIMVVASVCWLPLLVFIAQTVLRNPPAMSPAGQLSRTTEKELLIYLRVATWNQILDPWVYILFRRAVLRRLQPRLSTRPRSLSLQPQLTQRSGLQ
Experimental: Receptor expression and functional activity were monitored 48 hours after transfection. […] Heterologous competition studies involved concentrations of the indicated unlabeled ligands extending from 0.1 nM to 30 µM. After 30 min incubation at 25 °C, the reaction was stopped by aspiration of the medium, cells were washed with ice-cold PBS containing 0.2% (w/v) BSA and lysed in 0.5 N NaOH. Radioactivity was measured by liquid scintillation counting. Binding data were analyzed as described in Data and Statistical Analysis. Quantification of the total labeled inositol phosphates (IP) accumulation was performed using a conventional gravity flow column chromatography, as described previously, [19]. Briefly, the day before the assay, cells were labeled with 0,5 µCi of [myo-2-^3H]inositol (17 Ci/mmol) for 18–20 hours in serum-free, inositol-free DMEM containing 20 mM HEPES buffer, pH 7.4, and 0.5% (w/v) Albumax I. The day of the assay, media was replaced with serum-free, inositol-free DMEM containing 25 mM LiCl and cells stimulated for 30 min with the indicated agonists. After removal of the medium, cells were lysed with 10 mM formic acid and lysates were applied onto an anion exchange AG 1X-8 column, formate form, 200–400 mesh. The total IP fraction was then eluted with 2 M ammonium formate/formic acid buffer at pH 5 and radioactivity determined by liquid scintillation counting. […]
(§1) All average results are presented as mean±S.E. When indicated, ANOVA followed by post-hoc test for multiple comparisons was performed. Data from radioligand binding were evaluated by a nonlinear, least-squares curve-fitting procedure using GraphPad Prism version 4, implemented with the n-ligand m-binding site model, as described in the LIGAND computer program. Concentration-response curves were evaluated using Prism 4, which use the four parameters logistic model as described in the ALLFIT program. Parameter errors are all expressed in percentage coefficient of variation (%CV) and calculated by simultaneous analysis of at least two different independent experiments performed in duplicate or triplicate. […]

[2] = biological target: T2, E129/240V double mutant human TP receptor (Homo sapiens, UniProt P21731, E129V/E240V); experiment: [3H]SQ29,548 radioligand binding (mixed-type), E129/240V double mutant; conditions: HEK293 cells, no Gαq, before SQ29,548 rescue, value ±%CV
T2 construct: expressed in transfected cells; host or cells: HEK293
T2 sequence (P21731 1-343 E129V/E240V): T1 sequence (P21731 1-343 E240V) with E129V
Experimental: Receptor expression and functional activity were monitored 48 hours after transfection. […] Heterologous competition studies involved concentrations of the indicated unlabeled ligands extending from 0.1 nM to 30 µM. After 30 min incubation at 25 °C, the reaction was stopped by aspiration of the medium, cells were washed with ice-cold PBS containing 0.2% (w/v) BSA and lysed in 0.5 N NaOH. Radioactivity was measured by liquid scintillation counting. Binding data were analyzed as described in Data and Statistical Analysis. Quantification of the total labeled inositol phosphates (IP) accumulation was performed using a conventional gravity flow column chromatography, as described previously, [19]. […] The total IP fraction was then eluted with 2 M ammonium formate/formic acid buffer at pH 5 and radioactivity determined by liquid scintillation counting. […]
as §1, with “program.” for “program. Parameter errors are all expressed in percentage coefficient of variation (%CV) and calculated by simultaneous analysis of at least two different independent experiments performed in duplicate or triplicate.”

WT human TP receptor = biological target: T3, WT human TP receptor (Homo sapiens, UniProt P21731); experiment: [3H]SQ29,548 radioligand binding (mixed-type and heterologous competition), WT receptor; conditions: HEK293 cells, value ±%CV
T3 construct: expressed in transfected cells; host or cells: HEK293
T3 sequence (P21731 1-343): T1 sequence (P21731 1-343 E240V) with V240E
Experimental: (§2) Receptor expression and functional activity were monitored 48 hours after transfection. […] Heterologous competition studies involved concentrations of the indicated unlabeled ligands extending from 0.1 nM to 30 µM. After 30 min incubation at 25 °C, the reaction was stopped by aspiration of the medium, cells were washed with ice-cold PBS containing 0.2% (w/v) BSA and lysed in 0.5 N NaOH. Radioactivity was measured by liquid scintillation counting. Binding data were analyzed as described in Data and Statistical Analysis. Quantification of the total labeled inositol phosphates (IP) accumulation was performed using a conventional gravity flow column chromatography, as described previously, [19]. Briefly, the day before the assay, cells were labeled with 0,5 µCi of [myo-2-^3H]inositol (17 Ci/mmol) for 18–20 hours in serum-free, inositol-free DMEM containing 20 mM HEPES buffer, pH 7.4, and 0.5% (w/v) Albumax I. The day of the assay, media was replaced with serum-free, inositol-free DMEM containing 25 mM LiCl and cells stimulated for 30 min with the indicated agonists. After removal of the medium, cells were lysed with 10 mM formic acid and lysates were applied onto an anion exchange AG 1X-8 column, formate form, 200–400 mesh. The total IP fraction was then eluted with 2 M ammonium formate/formic acid buffer at pH 5 and radioactivity determined by liquid scintillation counting. Rescue experiments were performed essentially as above, except for a 18 hours incubation step with 1 µΜof […] followed by its removal by washing three times with ice-cold PBS containing 1 mM MgCl2 and 0.1 mM CaCl2 before starting the experiment.
(§3) All average results are presented as mean±S.E. When indicated, ANOVA followed by post-hoc test for multiple comparisons was performed. Data from radioligand binding were evaluated by a nonlinear, least-squares curve-fitting procedure using GraphPad Prism version 4, implemented with the n-ligand m-binding site model, as described in the LIGAND computer program. Concentration-response curves were evaluated using Prism 4, which use the four parameters logistic model as described in the ALLFIT program. Parameter errors are all expressed in percentage coefficient of variation (%CV) and calculated by simultaneous analysis of at least two different independent experiments performed in duplicate or triplicate. Parameter comparison has been performed on the base of the F test for extra sum of square principle. All curves shown are computer generated.
(§4) Thus, transfection conditions were adjusted to secure equivalent levels of receptor expression for WT and mutants as previously described, [17], [19]. […] All the experiments were conducted within this range of receptor expression, if not specified differently.

[3] = biological target: T4, E129V mutant human TP receptor (Homo sapiens, UniProt P21731, E129V); experiment: [3H]SQ29,548 radioligand binding (mixed-type and heterologous competition), E129V mutant; conditions: HEK293 cells, E129V, value ±%CV
T4 construct: expressed in transfected cells; host or cells: HEK293
T4 sequence (P21731 1-343 E129V): T1 sequence (P21731 1-343 E240V) with E129V, V240E
Experimental: as §2, §3, §4

O=C(O)CCC/C=C\C[C@@H]1[C@H](CNNC(=O)Nc2ccccc2)[C@@H]2CC[C@H]1O2 [[^3H]SQ29,548, [5,6-^3H]SQ29,548] was tested, and the Bmax ([1]; Gαq 3x) was 0.65±52 pmol/mg prot, the Bmax ([1]; Gαq 5x) was 0.49±34 pmol/mg prot and the Bmax ([1]; no Gαq cotransfection) was 0.97±31 pmol/mg prot. The Bmax [2] was 0.04±68 ^b pmol/mg prot, the Bmax (WT human TP receptor; Gαq 3x) was 0.90±46 pmol/mg prot and the Bmax (WT human TP receptor; Gαq 5x) was 0.95±39 pmol/mg prot. The Bmax (WT human TP receptor; no Gαq cotransfection) was 0.44±32 pmol/mg prot, the Bmax ([3]; Gαq 3x) was 0.38±21 pmol/mg prot and the Bmax ([3]; Gαq 5x) was 0.39±30 pmol/mg prot. For the same compound, the Bmax ([3]; no Gαq cotransfection) was 0.53±16 pmol/mg prot.
